Results as given in ChEMBL document CHEMBL3046851, “Synthesis of analogues of monic acids A and C: Potential herbicides and inhibitors of isoleucyl tRNA synthetase” (Bioorg Med Chem Lett, 1996).
Calls of active or inactive are those of the source. The rule behind the calls is not given here.

How the values were obtained:
[1] = Herbicidal activity against broadleaf weeds; format: functional
[2] = system: Poaceae; test: Herbicidal activity against Poaceae (grass) weeds; format: functional, organism-based
[3] = system: Spinacia oleracea; test: Inhibition of Spinacia oleracea (spinach) chloroplast isoleucyl tRNA synthetase at 1 uM

inhibition [3] | SMILES | Activity [1] | Activity [2]
inactive | COC(=O)/C=C(/C)Cc1cccc(C[C@H]2O[C@@H]2[C@@H](C)[C@H](C)O)c1 | inactive | inactive
inactive | CCOC(=O)/C=C(\C)C[C@H]1OC[C@H](C/C=C/[C@@H](C)[C@H](C)O)CO1 | inactive | inactive
inactive | CCOC(=O)/C=C(\C)C[C@H]1OC[C@@H](C/C=C/[C@@H](C)[C@H](C)O)CO1 | inactive | inactive
inactive | CCOC(=O)/C=C(/C)C[C@H]1OC[C@H](C/C=C/[C@@H](C)[C@H](C)O)CO1 | inactive | inactive
75% | C/C(=C\C(=O)OCCCCCCCCC(=O)O)C[C@@H]1OC[C@H](C[C@@H]2O[C@H]2[C@@H](C)[C@H](C)O)[C@@H](O)[C@H]1O | – | –
inactive | COC(=O)/C=C(\C)Cc1cccc(C[C@H]2O[C@@H]2[C@@H](C)[C@H](C)O)c1 | inactive | inactive
inactive | COC(=O)/C=C(\C)Cc1cccc(C[C@@H]2O[C@H]2[C@@H](C)[C@H](C)O)c1 | inactive | inactive

The next lines start with the compound.

SMILES | inhibition [3] | Activity [1] | Activity [2]
CCOC(=O)c1cccc(-c2cccc(C/C=C/[C@@H](C)[C@H](C)O)c2)c1 | inactive | inactive | inactive
COC(=O)/C=C(/C)Cc1cccc(C[C@@H]2O[C@H]2[C@@H](C)[C@H](C)O)c1 | inactive | inactive | inactive
COC(=O)/C=C(/C)Cc1cccc(C/C=C/[C@@H](C)[C@H](C)O)c1 | inactive | inactive | inactive
COC(=O)/C=C(\C)Cc1cccc(C/C=C/[C@@H](C)[C@H](C)O)c1 | inactive | inactive | inactive
CCOC(=O)c1cccc(-c2cccc(C[C@H]3O[C@@H]3[C@@H](C)[C@H](C)O)c2)c1 | inactive | inactive | inactive
CCOC(=O)c1cccc(-c2cccc(C[C@@H]3O[C@H]3[C@@H](C)[C@H](C)O)c2)c1 | inactive | inactive | inactive
